Data: the supplement of paper PMC10307832

Columns and labels:
Assay in all cases: relative viability (nuclei count vs DMSO), 5 days (fraction); higher = more cells survive
AZD8055 + Luminespib = compound: COc1ccc(-c2ccc3c(N4CCOC[C@@H]4C)nc(N4CCOC[C@@H]4C)nc3n2)cc1CO [AZD8055] + CCNC(=O)c1noc(-c2cc(C(C)C)c(O)cc2O)c1-c1ccc(CN2CCOCC2)cc1 [Luminespib] (partner 0.01 µM)
Method in brief: (§1)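 Lung cancer cell lines, seeded in 1536-well plates, were treated the following day by pin tool with a single drug or with five library-drug doses (not always all listed) in √10 steps on top of a fixed anchor-drug dose. Cells were fixed and nuclei stained in one step after 5 days, and nuclei were counted. Relative viability is the nuclei count for treated wells divided by that for vehicle wells, reported as medians of duplicate plates.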

AZD8055 + Decitabine = compound: COc1ccc(-c2ccc3c(N4CCOC[C@@H]4C)nc(N4CCOC[C@@H]4C)nc3n2)cc1CO [AZD8055] + Nc1ncn([C@H]2C[C@H](O)[C@@H](CO)O2)c(=O)n1 [Decitabine] (partner 2 µM)
Method in brief: as §1

AZD8055 + Olaparib = compound: COc1ccc(-c2ccc3c(N4CCOC[C@@H]4C)nc(N4CCOC[C@@H]4C)nc3n2)cc1CO [AZD8055] + O=C(c1cc(Cc2n[nH]c(=O)c3ccccc23)ccc1F)N1CCN(C(=O)C2CC2)CC1 [Olaparib] (partner 8 µM)
Method in brief: as §1

AZD8055 + Lapatinib = compound: COc1ccc(-c2ccc3c(N4CCOC[C@@H]4C)nc(N4CCOC[C@@H]4C)nc3n2)cc1CO [AZD8055] + CS(=O)(=O)CCNCc1ccc(-c2ccc3ncnc(Nc4ccc(OCc5cccc(F)c5)c(Cl)c4)c3c2)o1 [Lapatinib] (partner 2 µM)
Method in brief: as §1

| Cell Line | relative viability (AZD8055 + Luminespib; first compound 0.01 µM) | relative viability (AZD8055 + Luminespib; first compound 0.03162 µM) | relative viability (AZD8055 + Luminespib; first compound 0.1 µM) | relative viability (AZD8055 + Luminespib; first compound 0.3162 µM) | relative viability (AZD8055 + Luminespib; first compound 1 µM) | relative viability (AZD8055 + Decitabine; first compound 0.01 µM) | relative viability (AZD8055 + Decitabine; first compound 0.03162 µM) | relative viability (AZD8055 + Decitabine; first compound 0.1 µM) | relative viability (AZD8055 + Decitabine; first compound 0.3162 µM) | relative viability (AZD8055 + Decitabine; first compound 1 µM) | relative viability (AZD8055 + Olaparib; first compound 0.01 µM) | relative viability (AZD8055 + Olaparib; first compound 0.03162 µM) | relative viability (AZD8055 + Olaparib; first compound 0.1 µM) | relative viability (AZD8055 + Olaparib; first compound 0.3162 µM) | relative viability (AZD8055 + Olaparib; first compound 1 µM) | relative viability (AZD8055 + Lapatinib; first compound 0.01 µM) | relative viability (AZD8055 + Lapatinib; first compound 0.03162 µM) | relative viability (AZD8055 + Lapatinib; first compound 0.1 µM) | relative viability (AZD8055 + Lapatinib; first compound 0.3162 µM) | relative viability (AZD8055 + Lapatinib; first compound 1 µM) |
| --- | --- | --- | --- | --- | --- | --- | --- | --- | --- | --- | --- | --- | --- | --- | --- | --- | --- | --- | --- | --- |
| NCI-H441 | 0.347 | 0.291 | 0.283 | 0.22 | 0.221 | 0.284 | 0.233 | 0.225 | 0.206 | 0.246 | 0.691 | 0.528 | 0.359 | 0.32 | 0.249 |  |  |  |  |  |
| NCI-H1793 | 0.151 | 0.156 | 0.146 | 0.132 | 0.149 | 0.435 | 0.219 | 0.207 | 0.181 | 0.221 | 0.528 | 0.329 | 0.221 | 0.203 | 0.213 | 0.422 | 0.346 | 0.305 | 0.308 | 0.276 |
| NCI-H23 | 0.193 | 0.216 | 0.208 | 0.229 | 0.297 | 0.252 | 0.287 | 0.262 | 0.225 | 0.262 | 0.248 | 0.213 | 0.279 | 0.166 | 0.184 | 1.15 | 0.804 | 0.792 | 0.369 | 0.35 |
| HARA | 1.44 | 0.584 | 0.393 | 0.112 | 0.12 |  | 0.355 | 0.414 | 0.321 | 0.357 |  | 0.687 | 0.58 | 0.39 | 0.246 | 0.75 | 0.614 | 0.408 | 0.326 | 0.224 |
| NCI-H1792 | 0.38 | 0.415 | 0.218 | 0.295 | 0.127 | 0.585 | 0.38 | 0.338 | 0.093 | 0.124 | 0.503 | 0.379 | 0.0968 | 0.0717 | 0.108 | 1.02 | 0.838 | 0.808 | 0.15 | 0.131 |
| NCI-H1703 |  |  |  |  |  |  |  |  |  |  | 0.751 | 0.279 | 0.326 | 0.232 | 0.182 | 0.798 | 0.726 | 0.879 | 0.427 | 0.313 |
| NCI-H2342 | 0.579 | 0.535 | 0.599 | 0.419 | 0.424 | 0.741 | 0.653 | 0.668 | 0.668 | 0.504 | 0.376 | 0.439 | 0.362 | 0.309 | 0.289 |  |  |  |  |  |
| CAL-12T | 0.321 | 0.203 | 0.131 | 0.152 | 0.139 |  |  |  |  |  | 0.679 | 0.654 | 0.491 | 0.277 | 0.226 | 0.67 | 0.601 | 0.369 | 0.37 | 0.343 |
| NCI-H727 | 0.375 | 0.34 | 0.345 | 0.345 | 0.376 | 0.875 | 0.85 | 0.736 | 0.498 | 0.616 | 0.818 | 0.812 | 0.744 | 0.603 | 0.52 | 0.807 | 0.818 | 0.685 | 0.378 | 0.308 |
